# Measured values taken from patent US9526739B2, “Compositions and methods to treat cardiac diseases” (University of Connecticut, priority 2010, dated 2016).
# Where “and” joins values, the source holds several entries; their conditions need not be identical. Identical values can stand only once. Entries after “also recorded” stand apart in the source; their conditions may differ.
# Key:
# [1] = tested on: CSQ heart failure mice; test: Echocardiography-derived fractional shortening in CSQ heart failure mice after 28 days of subcutaneous minipump infusion; assay type: in vivo, mouse; settings: for cardioprotection in the CSQ model (in words) / effect on echocardiography-derived FS / cardiac contractile function versus normal saline (in words): 3.3 μM, 28 days of infusion, CSQ mice; for FS in % in CSQ Mice: at 3.3 μM, subcutaneous Alzet minipump infusion, 28 days, vehicle control 13.78 ± 1.19% (n = 16)
# Source text: Two of the phosphonates, 4 and 9, were able to cause an improved FS as compared to vehicle (FIG. 1, Table 1) and in comparison to the reference nucleotide 3. […] Thus, in the saturated phosphonate series, the orientation of the phosphorous relative to the methanocarba ring was somewhat structurally permissive, although inclusion of an olefin in the spacer prevented the cardioprotective action. In 11, one OH group of the phosphonate has been replaced with CH3. This reduces the overall charge on the molecule and is intended to make it more bioavailable. Evidently, the binding site of the receptor requires both oxygens for the most favorable improvement in FS. Therefore, as summarized in FIG. 1, the most significant improvement in FS was associated with the saturated homologues containing a 2-Cl substitution and an unmodified phosphonate group, 4 and 9.
# Compound 3 and its analogues were dissolved in phosphate-buffered saline, pH=7.4 at 3.3 μM (200 μL total volume), filtered for sterility for in vivo administration at 6 μL per day for 28 days via a mini-osmotic pump (Alzet) in the CSQ mice. Intact heart function in vivo was assessed by echocardiography following infusion of nucleotide- or vehicle
# [2] = tested on: control 1321N1 astrocytoma cells; test: Intracellular Ca2+ response in control 1321N1 astrocytoma cells; assay type: cell-based, human; settings: 10 μM, untransfected control 1321N1 astrocytoma cells
# [3] = tested on: CSQ heart failure mice; test: Echocardiography (FS, LV wall thickness) in CSQ heart failure mice after 14 days of infusion; settings: for effect on LV fractional shortening versus normal saline (in words) / cardioprotection in CSQ mice (in words): 14 days (two-week) infusion; for prevention of LV wall thinning in heart failure (in words): two-week infusion; for FS in % in CSQ Mice: at 10μM, 14 days of infusion, vehicle control 7.13 ± 1.49% (n = 4), phenotypically more severe CSQ mice than in Table 1
# [4] = Stability in aqueous medium at pH 1.5 (simulated stomach acid); assay type: physicochemical; settings: pH 1.5, over 24 hours
# Source text: (§1) The synthetic nucleotide analogue 3 activates the native cardiac P2X receptor, as indicated in electrophysiological experiments with normal cardiac myocytes and those that overexpress CSQ and based on its in vivo ability to improve the heart failure phenotype of these animals. The rigid carbocyclic ring system contained in this derivative stabilizes nucleotides toward the action of nucleotidases. […] In the present study, we have synthesized fully hydrolysis-resistant adenosine monophosphate derivatives based on phosphonate linkages.
# [5] = molecular target: T1, human P2Y1 receptor (Homo sapiens, UniProt P47900); test: FLIPR assay of calcium flux in 1321N1 astrocytoma cells stably expressing the human P2Y1 receptor; assay type: cell-based
# T1 construct: T. K. Harden, University of North Carolina School of Medicine; host or cells: 1321N1 human astrocytoma cells
# Experimental: The phosphonate derivatives were tested in a FLIPR assay of calcium flux induced in 1321N1 astrocytoma cells stably expressing the human P2Y1 receptor.
# Cells were grown overnight in 100 ml of medium in 96-well flatbottom plates at 37° C. at 5% CO2 or until they reached ˜80% confluency. The calcium-4 assay kit (Molecular Devices, Sunnyvale, Calif.) was used as directed with no washing of cells. Cells were loaded with 40 mL dye with probenecid in each well and incubated for 1 h at rt. The compound plate was prepared with dilutions of various compounds in Hank's Buffer at pH 7.2. Samples were run in duplicate with a FLIPR-Tetra (Molecular Devices) at rt. Cell fluorescence (excitation=485 nm; emission=525 nm) was monitored following exposure to a compound. Increases in intracellular calcium are reported as the maximum fluorescence value after exposure minus the basal fluorescence value before exposure.
# [6] = Hydrolysis on incubation at 37° C. with mammalian cell membranes (1321N1 astrocytoma cells); assay type: in vitro ADME; settings: 1321N1 astrocytoma cell membranes
# Source text: as §1
# Further, the 5′-phosphate 3 and the prodrug 9a (MRS2944) are stable to acidic conditions representative of stomach acid (pH 1.5). […] Without being held to theory, it is believed that the prodrug approach will allow the masked drug to pass through the stomach to be absorbed intact in the intestines, and for the charged phosphoryl group to remain intact until the free drug reaches the site of action in the heart. Therefore, the stable phosphonates would be suitable in this scheme. The cleavage of the prodrug derivatives is to occur in circulation prior to reaching the tissue site of action, because intracellular internalization would be undesirable. Therefore, many of the prodrug schemes that aim for penetration of the masked drug into the cells, i.e. for antiviral or anticancer application of nucleotide derivatives, would likely not be suitable here.
# [7] = molecular target: T2, hP2Y1 receptor (Homo sapiens, UniProt P47900); settings: initial characterization, previously reported; read-out: EC50, hP2Y1 receptor agonist, PLC; cited from earlier work
# T2 construct: host or cells: said to be the same cell line as the calcium assay (1321N1 astrocytoma cells expressing hP2Y1)
# [8] = tested on: aorta ring preparations; settings: cited from earlier work
# [9] = tested on: CSQ-overexpressing mouse; settings: cited from earlier work
# [10] = tested on: CSQ myocyte; settings: similar to that by compound 1, characteristic of the P2X4 receptor; cited from earlier work
# [11] = tested on: mouse cardiac myocytes; settings: voltage clamp; cited from earlier work
# [12] = 2-week infusion, CSQ mice, NS-infused 0.450±0.007 mm, P<0.05
# T1 sequence (P47900 whole entry): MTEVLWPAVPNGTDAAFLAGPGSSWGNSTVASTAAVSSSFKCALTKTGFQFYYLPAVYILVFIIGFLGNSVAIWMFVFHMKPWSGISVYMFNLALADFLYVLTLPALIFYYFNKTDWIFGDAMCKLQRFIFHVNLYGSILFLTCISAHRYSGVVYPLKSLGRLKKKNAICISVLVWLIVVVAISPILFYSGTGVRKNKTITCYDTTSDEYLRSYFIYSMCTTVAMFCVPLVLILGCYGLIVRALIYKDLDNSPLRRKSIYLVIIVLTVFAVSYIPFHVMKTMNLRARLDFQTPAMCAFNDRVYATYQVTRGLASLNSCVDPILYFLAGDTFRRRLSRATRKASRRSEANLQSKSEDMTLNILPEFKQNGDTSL
# T2 sequence (P47900 whole entry): as above
smiles,measurement,setting,value
"Nc1nc(Cl)nc2c1ncn2[C@H]1[C@H](O)[C@H](O)C2(CP(=O)(O)O)C[C@H]12 (stereo partly drawn) [Compound 4, (1′S,2′R,3′S,4′R,5′S)-4′-(6-Amino-2-chloropurin-9-yl)-2′,3′-(dihydroxy)-1′-(phosphonomethylene)-bicyclo[3.1.0]hexane]",cardioprotection in the CSQ model (in words),[1],active
same,effect on echocardiography-derived FS / cardiac contractile function versus normal saline (in words),[1],increased shortening of both the septum and left ventricular (LV) free wall; also recorded: able to improve in vivo cardiac contractile performance; also recorded: improved echocardiographically derived FS
same,FS in % in CSQ Mice,[1],20.25% and 20.25 ± 1.19%
Nc1nc(Cl)nc2c1ncn2[C@H]1[C@H](O)[C@H](O)C2(CCP(=O)(O)O)C[C@H]12 (stereo partly drawn) [Compound 9],cardioprotection in the CSQ model (in words),[1],clearly protective in vivo
same,effect on echocardiography-derived FS / cardiac contractile function versus normal saline (in words),[1],improved FS; also recorded: able to enhance cardiac contractile function
same,FS in % in CSQ Mice,[1],19.26% and 19.26 ± 1.23%
"CSc1nc(N)c2ncn([C@@H]3O[C@H](COP(=O)(O)OP(=O)(O)O)[C@@H](O)[C@H]3O)c2n1 [Compound 2-MeSADP, 2-MeSADP]",change in intracellular Ca2+ in control cells,[2],no change in intracellular Ca^2+
"Nc1nc(Cl)nc2c1ncn2[C@H]1[C@H](O)[C@H](O)C2(/C=C/P(=O)(O)O)C[C@H]12 (stereo partly drawn) [Compound 7, (1′S,2′R,3′S,4′R,5′S)-4′-(6-Amino-2-chloropurin-9-yl)-2′,3′-(dihydroxy)-1′-[(E)-phosphonoethenyl]-bicyclo[3.1.0]-hexane]",effect on LV fractional shortening versus normal saline (in words),[3]; CSQ mice,did not improve FS
same,prevention of LV wall thinning in heart failure (in words),[3]; CSQ mice,did not improve FS or prevent LV wall thinning
same,cardioprotection in the CSQ model (in words),[1],not protective
same,effect on echocardiography-derived FS / cardiac contractile function versus normal saline (in words),[1],lower FS values
same,FS in % in CSQ Mice,[1],12.12 ± 1.2%
Nc1ncnc2c1ncn2[C@H]1[C@H](O)[C@H](O)C2(CCP(=O)(O)O)C[C@H]12 (stereo partly drawn) [Compound 10],cardioprotection in the CSQ model (in words),[1],not protective
same,effect on echocardiography-derived FS / cardiac contractile function versus normal saline (in words),[1],lower FS values; also recorded: did not improve the contractile function
same,FS in % in CSQ Mice,[1],11.15 ± 1.44%
"Nc1ncnc2c1ncn2[C@H]1[C@H](O)[C@H](O)C2(/C=C/P(=O)(O)O)C[C@H]12 (stereo partly drawn) [Compound 8, (1′S,2′R,3′S,4′R,5′S)-4′-(6-Aminopurin-9-yl)-2′,3′-(dihydroxy)-1′-[(E)-phosphonoethenyl]-bicyclo[3.1.0]hexane]",cardioprotection in the CSQ model (in words),[1],not protective
same,effect on echocardiography-derived FS / cardiac contractile function versus normal saline (in words),[1],lower FS values
same,FS in % in CSQ Mice,[1],13.88 ± 2.12%
"Nc1nc(I)nc2c1ncn2[C@H]1[C@H](O)[C@H](O)C2(CP(=O)(O)O)C[C@H]12 (stereo partly drawn) [Compound 7a, (1′S,2′R,3′S,4′R,5′S)-4′-(6-Amino-2-iodoropurin-9-yl)-2′,3′-(dihydroxy)-1′-(phosphonomethylene)-bicyclo[3.1.0]hexane]",cardioprotection in CSQ mice (in words),[3]; CSQ mice,abolished protection; also recorded: not protective
same,effect on LV fractional shortening versus normal saline (in words),[3]; CSQ mice,did not improve FS; also recorded: lower FS values
same,FS in % in CSQ Mice,[3],10.33 ± 1.77%
same,prevention of LV wall thinning in heart failure (in words),[3]; CSQ mice,did not improve FS or prevent LV wall thinning
Nc1nc(Cl)nc2c1ncn2[C@H]1[C@H](O)[C@H](O)C2(CSP(=O)(O)O)C[C@H]12 (stereo partly drawn) [Compound 4a],LV posterior wall thickness,[3]; [12],0.493±0.016 mm
same,LV septal wall thickness,[3]; [12],0.492±0.012 mm
same,cardioprotection in CSQ mice (in words),[3]; CSQ mice,could protect the CSQ mice
same,FS in % in CSQ Mice,[3],14.33 ± 3.77%
"Nc1nc(Cl)nc2c1ncn2[C@H]1[C@H](O)[C@H](O)C2(COP(=O)(O)O)C[C@H]12 (stereo partly drawn) [Compound 3, (1′S, 2′R,3′S,4′R,5′S)-4-(6-amino-2-chloro-9H-purin-9-yl)-1-[phosphoryloxymethyl]bicyclo[3.1.0]hexane-2,3-diol]",stability to acidic conditions,[4],stable
same,Emax,"[5]; 1321-N1, read-out: maximal effect relative to the full agonist 2-MeSADP, hP2Y1 calcium flux",~80%
same,EC50,"[5]; 1321N1 cells stably expressing hP2Y1, FLIPR-Tetra, n=3, read-out: EC50, Ca2+ flux, hP2Y1 receptor",722 ± 55 nM
same,hydrolysis in the presence of mammalian cell membranes,[6],considerable hydrolysis
same,FS in % in CSQ Mice,[1],15.47 ± 1.15%
same,EC50,[7],1890 nM
same,vasodilator action,[8],inability to dilate aortic rings; also recorded: devoid of any vasodilator action
same,longevity compared to vehicle-injected mice,[9]; Alzet mini-osmotic pump,significantly increased longevity
same,cross-section area of the cardiac myocytes,[9]; chronic administration,decreases
same,heart weight/body weight ratio,[9]; chronic administration,decreases
same,hypertrophic and heart failure phenotype,[9]; chronically administered,rescued the hypertrophic and heart failure phenotype
same,current in the CSQ myocyte,[10],induced a current
"Nc1ncnc2c1ncn2[C@H]1[C@H](O)[C@H](O)C2(CP(=O)(O)O)C[C@H]12 (stereo partly drawn) [Compound 5, (1′S,2′R,3′S,4′R,5′S)-4′-(6-Aminopurin-9-yl)-2′,3′-(dihydroxy)-1′-(phosphonomethylene)-bicyclo[3.1.0]hexane]",FS in % in CSQ Mice,[1],16.23 ± 0.93%
CNc1nc(I)nc2c1ncn2[C@H]1C[C@H](OP(=O)(O)O)[C@]2(COP(=O)(O)O)C[C@H]12 [MRS2500],block of the membrane current evoked by 3,[11],could not block the membrane current evoked by 3
"CCOP(=O)(CC12C[C@@H]1[C@@H](n1cnc3c(N)nc(Cl)nc31)[C@H](O)[C@@H]2O)OCC (stereo partly drawn) [Compound 9a, Diethyl-(1′S,2′R,3′S,4′R,5′S)-4′-(6-amino-2-chloropurin-9-yl)-2′,3′-(hydroxy)-bicyclo[3.1.0]hexane phosphonate]",stability to acidic conditions,[4],stable
same,cardioprotection in CSQ mice (in words),[3]; CSQ mice,not protective
same,effect on LV fractional shortening versus normal saline (in words),[3]; CSQ mice,did not improve FS
same,FS in % in CSQ Mice,[3],8.58 ± 2.09%
same,prevention of LV wall thinning in heart failure (in words),[3]; CSQ mice,did not improve FS or prevent LV wall thinning
same,hydrolysis in the presence of mammalian cell membranes,[6],considerable hydrolysis
"CP(=O)(O)CC12C[C@@H]1[C@@H](n1cnc3c(N)nc(Cl)nc31)[C@H](O)[C@@H]2O (stereo partly drawn) [Compound 11, (1′S,2′R,3′S,4′R,5′S)-4′-(6-Amino-2-chloropurin-9-yl)-2′,3′-dihydroxy-1′-(methylphosphonicacid)-bicyclo[3.1.0]hexane]",effect on echocardiography-derived FS / cardiac contractile function versus normal saline (in words),[1],lower FS values
same,FS in % in CSQ Mice,[1],15.0 ± 1.2%
